The subject of this assay is IL-1β. As to the kind of experiment: Cytokine ELISA in CIA mice, day 60: IL-1β. Type of assay: in vivo. An excerpt: With continued reference to FIG. 1, in some embodiments, administration 116 may be done to an animal. As a non-limiting example, the animal may include a mouse, a fish, a rabbit, human, and the like. As a non-limiting example, administration 116 of composition of the engineered virus-based nanoparticle for a treatment of an autoimmune condition may be done to dilute, brown, and non-agouti (DBA) mice based on their susceptibility to collagen-induced arthritis (CIA). Female DBA/1 mice 6 to 8 weeks of age may be maintained under specific pathogen-free conditions. CIA may be induced by the intradermal tail base injection of 100 μg of chicken type II collagen (Sigma-Aldrich) as previously described. Five mice per group may be immunized on days 0 and 21 to induce arthritis. The onset of disease may be confirmed on the day that swelling or erythema may be observed in any paw, typically 4 to 10 days after the second immunization. […] CIA may be assessed using a macroscopic score system based on the visual identification of arthritic limbs. The clinical severity of arthritis may be evaluated as follows: Each mouse may be inspected every 2 to 3 days for three different parameters: (i) swelling of the hind ankle and foot, measured with calipers; (ii) erythema of each leg; and (iii) swelling of the fingers. The RA index for each mouse was expressed as the mean of the three scores from the individual parameters. At the end of the experiment (60 days), we determined the proportion of CD25+Foxp3+ cells in the lymph nodes and measured cytokine titers in the lymph nodes, joints, and serum.
With continued reference to FIG. 1, in some embodiments, processor 104 may determine critical administration 124 as a function of a cytokine profile and a proportion of CD25^+ Foxp3^+ cells. […] In some embodiments, to quantify cytokines in DBA mice, joint tissues may be pulverized and resuspended in 1 ml of lysis medium per 100-mg joint weight for 60 min at 37′C, followed by centrifugation to remove debris. […]
A general note: In an ELISA, binding on a coated surface is turned into a signal by an enzyme label.

As for `C[C@@H]1C[C@H]2[C@@H]3CCC4=CC(=O)C=C[C@]4(C)[C@@]3(F)[C@@H](O)C[C@]2(C)[C@@]1(O)C(=O)CO` [Dexamethasone, dexamethasone], for the setting “joint supernatant, CIA mice, day 60, mean n=3”, the “IL-1β J” value was determined as 38.43 pg/mL. For the same compound, the “IL-1β LN” value (lymph node supernatant, CIA mice, day 60, mean n=3) was found to be 65.63 pg/mL. Further, the “IL-1β S” value (serum pooled from five CIA mice, day 60) came out at 26.6 pg/mL.

(Values after US12527849B2, “Apparatus for determining administration form of a composition of an engineered virus-based nanoparticle for a treatment of an autoimmune condition” (Diamante Srl, priority 2021, dated 2026).)
